Values after ≈ are worked out from the molar mass of the structure shown. Read-outs that look alike come from different tables or passages of the source.
Key:
Assay type in all cases: physicochemical
[1] = Dynamic vapor sorption (DVS) hygroscopicity test; conditions: for water uptake: at 80% RH at 25° C., DVS
Method: To investigate the solid form stability as a function of humidity, Dynamic Vapor Sorption (DVS) isotherm plots of Form A, Form C, and Form D were collected at 25° C. between 0 and 95% relative humidity (RH) by the procedures of Example 8. […] DVS was measured via a SMS (Surface Measurement Systems) DVS Intrinsic. The relative humidity at 25° C. were calibrated against deliquescence points of LiCl, Mg(NO3)2 and KCl. [table]

[2] = 24 hrs solubility in H2O at RT (HPLC of supernatant, XRPD of residual solids)
Method: The solubility at 24 hrs of Forms A, C, and D was measured in water at RT. Form A, Form C, and Form D samples were suspended into H2O with dose concentration of 10 mg/mL. After slurrying the suspensions at RT for 24 hrs (1000 rpm), the supernatants were separated for HPLC solubility measurement and the residual solids were characterized by XRPD.

[3] = Slurry competition experiments (thermodynamic stability of anhydrate forms); conditions: for thermodynamic stability, Form C versus Form D: slurry competition
Method: Slurry competition experiments were performed to investigate the inter-conversion relationship between three anhydrates (Form A, C, and D). […] Slurry competition was first performed between Form A and C at RT and 50° C. Form C was obtained after slurrying for 40 hrs at RT or 2 hrs at 50° C. […] Therefore, slurry competition was further performed between Form C and D in various solvent systems. The solvent effect of H2O was discovered to be associated with the inter-conversion relationship between Form C and D, with form D forming under anhydrous conditions.
To understand the thermodynamic stability relationship between Form A and Form C, slurry competition experiments were performed at RT and 50° C. in different solvent systems, including acetone/n-heptane, methyl tert-butylether (MTBE)/heptane, and water. Form A was used to saturate the corresponding solvent before filtered to obtain a near-saturated solution. Equal amount of Form A and C samples were weighed and then mixed with the prepared near-saturated solution to form a new suspension, which was stirred magnetically (˜1000 rpm) at RT and 50° C. The XRPD patterns of remaining solids after slurry were measured. […] Form D was obtained via slurrying Form A in MTBE/n-heptane (1:4, v/v) at RT for 1 day, with the addition of Form D sample as seeds.
To further understand the thermodynamic stability relationship between Form C and Form D, slurry competition experiments were performed at RT and 70° C. in various solvent systems, including methyl tert-butylether/heptane, water, cyclohexane, and ethanol/isooctane. Equal amount of Form C and D samples were weighed and then mixed with the near-saturated solution of Form A in corresponding solvent to form a suspension, which was stirred magnetically (˜1000 rpm) at different temperatures. The XRPD patterns of remaining solids after slurry were measured. […] Water content in process solvents were monitored and controlled during the manufacturing of Form C or D samples. […] Water activity (or relative humidity) was monitored and controlled during the manufacture and storage of Form C or D samples.

[4] = Approximate solubility in solvents, used to choose slurry solvent systems
[5] = 24 hrs slurry at 10 mg/mL dose concentration, HPLC

| SMILES | water uptake [1] [%] | form change after 24 hrs solubility evaluation (XRPD of residual solids) [2] | solubility at 24 h ([2]; water, thermodynamic from solid, 24 hrs slurry at 10 mg/mL dose concentration, HPLC) [µg/mL] | thermodynamic stability, Form A versus Form C ([3]; slurry competition of equal amounts of Form A and C, RT and 50° C., various solvents) | thermodynamic stability, Form C versus Form D ([3]; water activity aw≥0.5 at RT) | Hygroscopicity ([1]; DVS at 25° C., 0 to 95% RH) | 24 Hrs Solubility in H2O at RT [2, 5] [µg/mL] | thermodynamic stability, Form C versus Form D ([3]; water activity aw≤0.2 at RT) | solubility ([4]; H2O and non-polar solvents (e.g., n-heptane, cyclohexane), water, read-out: solubility in H2O and non-polar solvents) [µg/mL] | solubility ([4]; organic solvent or mixture, solvents other than H2O and non-polar solvents, read-out: solubility in other solvents) [µg/mL] |
| --- | --- | --- | --- | --- | --- | --- | --- | --- | --- | --- |
| CNc1nc(Nc2cn(C(C)(C)C#N)nc2C)ncc1C(F)(F)F [Form A, 2-methyl-2-(3-methyl-4-(4-(methylamino)-5-(trifluoromethyl)pyrimidin-2-ylamino)-1H-pyrazol-1-yl)propanenitrile] | 0.04 | No form change | 180 (≈ 530 µM) |  |  |  |  |  |  |  |
| CNc1nc(Nc2cn(C(C)(C)C#N)nc2C)ncc1C(F)(F)F [Form C, 2-methyl-2-(3-methyl-4-(4-(methylamino)-5-(trifluoromethyl)pyrimidin-2-ylamino)-1H-pyrazol-1-yl)propanenitrile] | 0.6 | No form change |  | thermodynamically more stable than Form A | more stable | slightly hygroscopic | 140 |  |  |  |
| CNc1nc(Nc2cn(C(C)(C)C#N)nc2C)ncc1C(F)(F)F [Form D, 2-methyl-2-(3-methyl-4-(4-(methylamino)-5-(trifluoromethyl)pyrimidin-2-ylamino)-1H-pyrazol-1-yl)propanenitrile] | 0.05 | No form change |  |  |  |  | 110 | thermodynamically more stable |  |  |
| CNc1nc(Nc2cn(C(C)(C)C#N)nc2C)ncc1C(F)(F)F [Formula I compound, 2-methyl-2-(3-methyl-4-(4-(methylamino)-5-(trifluoromethyl)pyrimidin-2-ylamino)-1H-pyrazol-1-yl)propanenitrile] |  |  |  |  |  |  |  |  | < 2000 | > 40000 |
